Tested on: recombinant NL4-3 virus (Renilla luciferase in nef, Gag P373S)
Assay: HIV cell culture assay (luciferase activity in MT-2 cells infected with NLRluc recombinant virus)
Assay type: cell-based
Details: NL43, MT-2 cells infected 4-5 days with NLRluc recombinant virus, class symbol
How it was run: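 Activity was read as luciferase output (Dual Luciferase reagents premixed with lysis solution) after 4–5 days of infection in serially diluted inhibitor. Host cells were MT-2 in 10% FBS RPMI. The reporter virus came from transfected 293T cells and was titered on MT-2.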

Structure (SMILES) | EC50 [nM]
C=C(C)[C@@H]1CC[C@]2(CNC(=O)[C@H]3CCCN3)CC[C@]3(C)[C@H](CC[C@@H]4[C@@]5(C)CC=C(c6ccc(C(=O)O)cc6)C(C)(C)[C@@H]5CC[C@]43C)[C@@H]12 [Example 137, 4-((1R,3aS,5aR,5bR,7aR,11aS,11bR,13aR,13bR)-5a,5b,8,8,11a-pentamethyl-1-(prop-1-en-2-yl)-3a-(((R)-pyrrolidine-2-carboxamido)methyl)-2,3,3a,4,5,5a,5b,6,7,7a,8,11,11a,11b,12,13,13a,13b-octadecahydro-1H-cyclopenta[a]chrysen-9-yl)benzoic acid] | < 100
C=C(C)[C@@H]1CC[C@]2(CNC(=O)[C@@H]3CCCN3C(C)=O)CC[C@]3(C)[C@H](CC[C@@H]4[C@@]5(C)CC=C(c6ccc(C(=O)O)cc6)C(C)(C)[C@@H]5CC[C@]43C)[C@@H]12 [Example 138, 4-((1R,3aS,5aR,5bR,7aR,11aS,11bR,13aR,13bR)-3a-(((S)-1-acetylpyrrolidine-2-carboxamido)methyl)-5a,5b,8,8,11a-pentamethyl-1-(prop-1-en-2-yl)-2,3,3a,4,5,5a,5b,6,7,7a,8,11,11a,11b,12,13,13a,13b-octadecahydro-1H-cyclopenta[a]chrysen-9-yl)benzoic acid] | < 100
C=C(C)[C@@H]1CC[C@]2(CNC(=O)CNC)CC[C@]3(C)[C@H](CC[C@@H]4[C@@]5(C)CC=C(c6ccc(C(=O)O)cc6)C(C)(C)[C@@H]5CC[C@]43C)[C@@H]12 [Example 139, 4-((1R,3aS,5aR,5bR,7aR,11aS,11bR,13aR,13bR)-5a,5b,8,8,11a-pentamethyl-3a-((2-(methylamino)acetamido)methyl)-1-(prop-1-en-2-yl)-2,3,3a,4,5,5a,5b,6,7,7a,8,11,11a,11b,12,13,13a,13b-octadecahydro-1H-cyclopenta[a]chrysen-9-yl)benzoic acid] | < 100
C=C(C)[C@@H]1CC[C@]2(CNC(=O)[C@@H](N)Cc3c[nH]cn3)CC[C@]3(C)[C@H](CC[C@@H]4[C@@]5(C)CC=C(c6ccc(C(=O)O)cc6)C(C)(C)[C@@H]5CC[C@]43C)[C@@H]12 [Example 140, 4-((1R,3aS,5aR,5bR,7aR,11aS,11bR,13aR,13bR)-3a-(((S)-2-amino-3-(1H-imidazol-4-yl)propanamido)methyl)-5a,5b,8,8,11a-pentamethyl-1-(prop-1-en-2-yl)-2,3,3a,4,5,5a,5b,6,7,7a,8,11,11a,11b,12,13,13a,13b-octadecahydro-1H-cyclopenta[a]chrysen-9-yl)benzoic acid] | < 100
C=C(C)[C@@H]1CC[C@]2(CNC(=O)CCN3CCNCC3)CC[C@]3(C)[C@H](CC[C@@H]4[C@@]5(C)CC=C(c6ccc(C(=O)O)cc6)C(C)(C)[C@@H]5CC[C@]43C)[C@@H]12 [Example 141, 4-((1R,3aS,5aR,5bR,7aR,11aS,11bR,13aR,13bR)-5a,5b,8,8,11a-pentamethyl-3a-((3-(piperazin-1-yl)propanamido)methyl)-1-(prop-1-en-2-yl)-2,3,3a,4,5,5a,5b,6,7,7a,8,11,11a,11b,12,13,13a,13b-octadecahydro-1H-cyclopenta[a]chrysen-9-yl)benzoic acid] | < 100
C=C(C)[C@@H]1CC[C@]2(CNC(=O)CCN(C)C)CC[C@]3(C)[C@H](CC[C@@H]4[C@@]5(C)CC=C(c6ccc(C(=O)O)cc6)C(C)(C)[C@@H]5CC[C@]43C)[C@@H]12 [Example 142, 4-((1R,3aS,5aR,5bR,7aR,11aS,11bR,13aR,13bR)-3a-((3-(dimethylamino)propanamido)methyl)-5a,5b,8,8,11a-pentamethyl-1-(prop-1-en-2-yl)-2,3,3a,4,5,5a,5b,6,7,7a,8,11,11a,11b,12,13,13a,13b-octadecahydro-1H-cyclopenta[a]chrysen-9-yl)benzoic acid] | < 100
C=C(C)[C@@H]1CC[C@]2(CNC(=O)c3cccc(C(=O)O)c3)CC[C@]3(C)[C@H](CC[C@@H]4[C@@]5(C)CC=C(c6ccc(C(=O)O)cc6)C(C)(C)[C@@H]5CC[C@]43C)[C@@H]12 [Example 143, 3-(((1R,3aS,5aR,5bR,7aR,11aS,11bR,13aR,13bR)-9-(4-carboxyphenyl)-5a,5b,8,8,11a-pentamethyl-1-(prop-1-en-2-yl)-2,3,3a,4,5,5a,5b,6,7,7a,8,11,11a,11b,12,13,13a,13b-octadecahydro-1H-cyclopenta[a]chrysen-3a-yl)methylcarbamoyl)benzoic acid] | < 100
C=C(C)[C@@H]1CC[C@]2(CNC(=O)c3ccc(S(N)(=O)=O)cc3)CC[C@]3(C)[C@H](CC[C@@H]4[C@@]5(C)CC=C(c6ccc(C(=O)O)cc6)C(C)(C)[C@@H]5CC[C@]43C)[C@@H]12 [Example 144, 4-((1R,3aS,5aR,5bR,7aR,11aS,11bR,13aR,13bR)-5a,5b,8,8,11a-pentamethyl-1-(prop-1-en-2-yl)-3a((4-sulfamoylbenzamido)methyl)-2,3,3a,4,5,5a,5b,6,7,7a,8,11,11a,11b,12,13,13a,13b-octadecahydro-1H-cyclopenta[a]chrysen-9-yl)benzoic acid] | < 100
C=C(C)[C@@H]1CC[C@]2(CNC(=O)CN3CCS(=O)(=O)CC3)CC[C@]3(C)[C@H](CC[C@@H]4[C@@]5(C)CC=C(c6ccc(C(=O)O)cc6)C(C)(C)[C@@H]5CC[C@]43C)[C@@H]12 [Example 145, 4-((1R,3aS,5aR,5bR,7aR,11aS,11bR,13aR,13bR)-3a-((((1,1-dioxido-4-thiomorpholinyl)acetyl)amino)methyl)-1-isopropenyl-5a,5b,8,8,11a-pentamethyl-2,3,3a,4,5,5a,5b,6,7,7a,8,11,11a,11b,12,13,13a,13b-octadecahydro-1H-cyclopenta[a]chrysen-9-yl)benzoic acid] | < 100
C=C(C)[C@@H]1CC[C@]2(CNC(=O)CCN3CCS(=O)(=O)CC3)CC[C@]3(C)[C@H](CC[C@@H]4[C@@]5(C)CC=C(c6ccc(C(=O)O)cc6)C(C)(C)[C@@H]5CC[C@]43C)[C@@H]12 [Example 146, 4-((1R,3aS,5aR,5bR,7aR,11aS,11bR,13aR,13bR)-3a-(((3-(1,1-dioxido-4-thiomorpholinyl)propanoyl)amino)methyl)-1-isopropenyl-5a,5b,8,8,11a-pentamethyl-2,3,3a,4,5,5a,5b,6,7,7a,8,11,11a,11b,12,13,13a,13b-octadecahydro-1H-cyclopenta[a]chrysen-9-yl)benzoic acid] | < 100
C=C(C)[C@@H]1CC[C@]2(CNC(=O)CN3CCCCS3(=O)=O)CC[C@]3(C)[C@H](CC[C@@H]4[C@@]5(C)CC=C(c6ccc(C(=O)O)cc6)C(C)(C)[C@@H]5CC[C@]43C)[C@@H]12 [Example 147, 4-((1R,3aS,5aR,5bR,7aR,11aS,11bR,13aR,13bR)-3a-((((1,1-dioxido-1,2-thiazinan-2-yl)acetyl)amino)methyl)-1-isopropenyl-5a,5b,8,8,11a-pentamethyl-2,3,3a,4,5,5a,5b,6,7,7a,8,11,11a,11b,12,13,13a,13b-octadecahydro-1H-cyclopenta[a]chrysen-9-yl)benzoic acid] | < 100
C=C(C)[C@@H]1CC[C@]2(CNC(=O)CN(C)C)CC[C@]3(C)[C@H](CC[C@@H]4[C@@]5(C)CC=C(c6ccc(C(=O)O)cc6)C(C)(C)[C@@H]5CC[C@]43C)[C@@H]12 [Example 148, 4-((1R,3aS,5aR,5bR,7aR,11aS,11bR,13aR,13bR)-3a-((2-(dimethylamino)acetamido)methyl)-5a,5b,8,8,11a-pentamethyl-1-(prop-1-en-2-yl)-2,3,3a,4,5,5a,5b,6,7,7a,8,11,11a,11b,12,13,13a,13b-octadecahydro-1H-cyclopenta[a]chrysen-9-yl)benzoic acid] | < 100
C=C(C)[C@@H]1CC[C@]2(CNC(=O)[C@@H]3CCCN3C)CC[C@]3(C)[C@H](CC[C@@H]4[C@@]5(C)CC=C(c6ccc(C(=O)O)cc6)C(C)(C)[C@@H]5CC[C@]43C)[C@@H]12 [Example 150, 4-((1R,3aS,5aR,5bR,7aR,11aS,11bR,13aR,13bR)-5a,5b,8,8,11a-pentamethyl-3a-(((S)-1-methylpyrrolidine-2-carboxamido)methyl)-1-(prop-1-en-2-yl)-2,3,3a,4,5,5a,5b,6,7,7a,8,11,11a,11b,12,13,13a,13b-octadecahydro-1H-cyclopenta[a]chrysen-9-yl)benzoic acid] | < 100
C=C(C)[C@@H]1CC[C@]2(CNC(=O)[C@H]3CCCN3C)CC[C@]3(C)[C@H](CC[C@@H]4[C@@]5(C)CC=C(c6ccc(C(=O)O)cc6)C(C)(C)[C@@H]5CC[C@]43C)[C@@H]12 [Example 151, 4-((1R,3aS,5aR,5bR,7aR,11aS,11bR,13aR,13bR)-5a,5b,8,8,11a-pentamethyl-3a-(((R)-1-methylpyrrolidine-2-carboxamido)methyl)-1-(prop-1-en-2-yl)-2,3,3a,4,5,5a,5b,6,7,7a,8,11,11a,11b,12,13,13a,13b-octadecahydro-1H-cyclopenta[a]chrysen-9-yl)benzoic acid] | < 100
C=C(C)[C@@H]1CC[C@]2(CNC(=O)C(F)(F)C(=O)NCCN(C)C)CC[C@]3(C)[C@H](CC[C@@H]4[C@@]5(C)CC=C(c6ccc(C(=O)O)cc6)C(C)(C)[C@@H]5CC[C@]43C)[C@@H]12 [Example 152, 4-((1R,3aS,5aR,5bR,7aR,11aS,11bR,13aR,13bR)-3a-((3-(2-(dimethylamino)ethylamino)-2,2-difluoro-3-oxopropanamido)methyl)-5a,5b,8,8,11a-pentamethyl-1-(prop-1-en-2-yl)-2,3,3a,4,5,5a,5b,6,7,7a,8,11,11a,11b,12,13,13a,13b-octadecahydro-1H-cyclopenta[a]chrysen-9-yl)benzoic acid] | < 100

— patent US8748415B2 (priority 2011, dated 2014)
